Source: publication PMC3408963 (Bioorganic & medicinal chemistry, 2012)

Tests used:
COX-2 = target: T1, COX-2 (Homo sapiens, UniProt P35354); format: biochemical; conditions: for IC50: read-out: IC50 COX-2, radioactivity assay, pre-incubation 17 min at 25 °C and 3 min at 37 °C, 50 μM [14C]-AA for 30 sec, average of at least two independent experiments; for COX-2 inhibition, result in words: initial screen at 25 μM / relevant concentration range
T1 sequence (P35354 18-604): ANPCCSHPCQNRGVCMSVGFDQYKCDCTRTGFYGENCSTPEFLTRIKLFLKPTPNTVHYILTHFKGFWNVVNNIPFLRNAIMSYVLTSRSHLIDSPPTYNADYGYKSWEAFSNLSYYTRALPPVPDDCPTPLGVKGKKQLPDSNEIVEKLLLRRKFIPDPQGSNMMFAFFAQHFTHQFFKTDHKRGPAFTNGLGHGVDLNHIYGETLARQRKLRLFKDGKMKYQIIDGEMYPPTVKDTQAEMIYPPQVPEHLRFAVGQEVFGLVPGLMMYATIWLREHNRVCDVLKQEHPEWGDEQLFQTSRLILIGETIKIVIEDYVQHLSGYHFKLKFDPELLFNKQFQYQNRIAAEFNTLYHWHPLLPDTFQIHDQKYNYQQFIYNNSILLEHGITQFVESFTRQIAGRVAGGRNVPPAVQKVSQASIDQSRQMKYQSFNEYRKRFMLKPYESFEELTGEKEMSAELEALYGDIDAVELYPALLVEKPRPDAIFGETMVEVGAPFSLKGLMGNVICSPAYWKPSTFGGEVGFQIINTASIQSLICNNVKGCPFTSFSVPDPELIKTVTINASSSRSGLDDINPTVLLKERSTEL

COX-1 = COX-1 (Homo sapiens, UniProt P23219); format: biochemical; conditions: for COX-1 inhibition, result in words: initial screen at 25 μM / relevant concentration range; for IC50: read-out: IC50 COX-1, radioactivity assay, pre-incubation 17 min at 25 °C and 3 min at 37 °C, 50 μM [14C]-AA for 30 sec, average of at least two independent experiments
Sequence of COX-1 (P23219 24-599): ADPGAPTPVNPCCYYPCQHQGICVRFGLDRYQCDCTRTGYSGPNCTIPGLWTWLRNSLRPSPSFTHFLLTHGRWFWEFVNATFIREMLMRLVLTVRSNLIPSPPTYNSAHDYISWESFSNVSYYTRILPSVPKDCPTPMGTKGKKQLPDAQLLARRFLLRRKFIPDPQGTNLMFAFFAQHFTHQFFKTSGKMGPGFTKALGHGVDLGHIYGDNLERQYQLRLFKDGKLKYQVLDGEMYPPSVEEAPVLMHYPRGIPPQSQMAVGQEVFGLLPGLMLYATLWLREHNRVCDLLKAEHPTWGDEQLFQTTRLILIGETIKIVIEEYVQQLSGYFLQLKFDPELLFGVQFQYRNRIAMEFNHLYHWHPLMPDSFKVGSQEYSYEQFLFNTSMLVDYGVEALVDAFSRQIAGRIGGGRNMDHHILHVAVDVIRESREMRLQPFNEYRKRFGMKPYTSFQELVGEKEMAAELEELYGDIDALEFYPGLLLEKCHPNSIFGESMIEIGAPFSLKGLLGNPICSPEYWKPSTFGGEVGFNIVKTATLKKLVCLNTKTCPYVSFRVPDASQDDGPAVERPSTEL

IC50 (COX-2)	COX-1 inhibition, result in words (COX-1)	IC50 (COX-1)	COX-2 inhibition, result in words (COX-2)	Compound
11.6 µM	also inhibited COX-1	15.1 µM	–	1-(1-Carboxy-1,2-dicarba-closo-dodecaboran(12)yl)-5-methoxy-2-methyl-1H-indole-3-acetic acid benzyl ester [Compound 2o]
0.084 µM	also inhibited COX-1	12.8 µM	–	1-(1-Carboxy-1,2-dicarba-closo-dodecaboran(12)yl)-5-methoxy-2-methyl-1H-indole-3-acetic acid methyl ester [Compound 1o]
1.41 µM	not COX-1	> 25 µM	exclusively inhibited COX-2	1-(1-Carboxy-1,2-dicarba-closo-dodecaboran(12)yl)-5-methoxy-2-methyl-1H-indole-3-acetic acid tert-butyl ester [Compound 3o]
–	–	> 25 µM	–	COC(=O)Cc1c(C)n(C(=O)c2ccc(Cl)cc2)c2ccc(OC)cc12 [Compound 1i, Indomethacin methyl ester, reference compound]
3.68 µM	not COX-1	> 25 µM	exclusively inhibited COX-2	1-(1-Carboxy-1,2-dicarba-closo-dodecaboran(12)yl)-5-methoxy-2-methyl-1H-indole-3-acetic acid [Compound 4o]
